Measurements published in PMC10043345, “Discovery of BAR502, as potent steroidal antagonist of leukemia inhibitory factor receptor for the treatment of pancreatic adenocarcinoma” (Frontiers in Oncology, 2023).

Tests used:
hLIFR = target: T1, hLIFR (Homo sapiens, UniProt P42702); experiment: STAT3 transactivation in HepG2 cells transfected with hLIFR and CD130, stimulated with LIF; format: cell-based; details: LIF 10 ng/mL, read-out: HepG2 LIFR Antagonism IC50 (STAT3 transactivation)
T1 sequence (P42702 45-1097): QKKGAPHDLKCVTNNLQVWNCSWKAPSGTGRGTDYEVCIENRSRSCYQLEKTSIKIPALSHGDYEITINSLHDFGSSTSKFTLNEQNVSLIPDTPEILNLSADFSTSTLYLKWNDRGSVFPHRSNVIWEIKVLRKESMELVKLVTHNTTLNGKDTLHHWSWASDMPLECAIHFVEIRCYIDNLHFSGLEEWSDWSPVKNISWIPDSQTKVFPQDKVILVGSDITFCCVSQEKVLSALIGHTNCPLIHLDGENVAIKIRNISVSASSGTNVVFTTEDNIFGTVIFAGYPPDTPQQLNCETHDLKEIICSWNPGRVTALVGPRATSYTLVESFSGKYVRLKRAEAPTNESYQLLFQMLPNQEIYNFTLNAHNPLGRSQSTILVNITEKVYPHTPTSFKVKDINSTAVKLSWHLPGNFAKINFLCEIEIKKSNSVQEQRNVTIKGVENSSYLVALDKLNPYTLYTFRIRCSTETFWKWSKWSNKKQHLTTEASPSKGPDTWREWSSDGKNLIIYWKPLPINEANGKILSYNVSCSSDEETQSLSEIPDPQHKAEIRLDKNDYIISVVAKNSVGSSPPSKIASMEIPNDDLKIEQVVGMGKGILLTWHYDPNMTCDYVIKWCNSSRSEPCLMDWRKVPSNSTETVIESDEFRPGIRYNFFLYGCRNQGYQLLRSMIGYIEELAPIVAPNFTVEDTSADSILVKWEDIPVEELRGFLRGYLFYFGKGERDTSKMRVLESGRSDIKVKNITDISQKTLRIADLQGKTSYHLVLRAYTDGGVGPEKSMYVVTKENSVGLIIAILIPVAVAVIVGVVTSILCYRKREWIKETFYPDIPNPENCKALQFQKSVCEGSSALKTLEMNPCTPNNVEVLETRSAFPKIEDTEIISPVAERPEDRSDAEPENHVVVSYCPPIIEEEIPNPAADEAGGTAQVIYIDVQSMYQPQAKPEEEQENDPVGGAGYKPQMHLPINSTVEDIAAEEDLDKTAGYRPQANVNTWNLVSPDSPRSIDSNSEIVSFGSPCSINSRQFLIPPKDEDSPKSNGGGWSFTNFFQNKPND
Protocol: On day 0, HepG2 were seeded at 7.5 × 10^4 cells/well in a 24-well plate and maintained at 37°C and 5% CO2 in E-MEM supplemented with 10% FBS, 1% glutamine, and 1% penicillin/streptomycin. On day 1, cells were transiently transfected with the reporter plasmid pGL4.47[luc2P/SIE/Hygro] (200 ng) (CAT#: E4041 Promega, Madison, WI, USA), a vector encoding the hLIFR (CAT# RC226327) (100 ng) and CD130 (IL6ST) (100 ng) (CAT#: RC215123, OriGene Technologies, Inc. Rockville, MD, USA), and finally a vector encoding the human RENILLA luciferase gene (pGL4.70) (100 ng) (Promega, Madison, WI, USA). On day 2, cells were exposed to the cytokine LIF (10 ng/mL) alone or in combination with BAR502 (from 0.1 to 20 μM). […] For FXR mediated transactivation, HepG2 cells were plated at 7.5 × 10^4 cells/well in a 24 well plate. Cells were transfected with 200 ng of the reporter vector p(hsp27)-TK-LUC containing a FXR response element (IR1) cloned from the promoter of heat shock protein 27 (hsp27), 100 ng of pSG5-FXR, 100 ng of pSG5-RXR, and 100 ng of pGL4.70 (Promega), a vector encoding the human Renilla gene. To perform STAT3 transactivation, HepG2 were seeded at 7.5× 10^4 cells/well in a 24-well plate. On the day-1, cells were transiently transfected with 200 ng of the reporter plasmid pGL4.47[luc2P/SIE/Hygro] […] Luminescence was measured using a Glomax 20/20 luminometer (Promega, Madison, WI, USA). […]

MIA PaCa-2 cells = experiment: Ki-67/7-AAD IC-FACS cell cycle analysis; format: cell-based, human
Protocol: MIA-PaCa2 cells were seeded in 6-well tissue culture plate (cell density 700 × 10^3/well) and cultured as specified above. Cells were serum-starved for 8 h and then incubated with LIF (10 ng/mL) alone or plus BAR502 (10, 20 µM) or a vehicle for 24 h. The intracellular flow cytometry staining for Ki-67 was performed using the following reagents: Ki-67 Monoclonal Antibody (SolA15), Alexa Fluor™ 488, (eBioscience™, San Diego, California, USA) and 7-AAD to characterize the cell cycle phases G0-G1 and S-G2-M. Before intracellular IC-FACS, staining cells were fixed for 30 min in the dark using IC Fixation buffer (eBioscience™) and then permeabilized using Permeabilization buffer (10X) (eBioscience™). The staining for Annexin V was performed using the Annexin V Antibody (A13199, Thermofisher Scientific, Waltham, MA, USA) to evaluate the apoptosis rate. Briefly, 5 μL of Annexin V Antibody was added to each 100 μL of cell suspension, and cells were incubated the at room temperature for 15 min. Flow cytometry analyses were carried out using a 3-laser standard configuration ATTUNE NxT (LIFe Technologies, Carlsbad, CA, USA). Data were analyzed using FlowJo software (TreeStar) and the gates set using a fluorescence minus-one (FMO) control strategy. […] The channel in which the conjugated Ab is missing is the one for which the fluorescence minus one provides a gating control.

Compound: CC[C@H]1[C@@H](O)C2C3CC[C@H]([C@H](C)CCO)[C@@]3(C)CCC2[C@@]2(C)CC[C@@H](O)C[C@@H]12 (stereo partly drawn) [BAR502]
- IC50 (hLIFR): 2730 nM
- effect on LIF-increased S-G2-M transition (MIA PaCa-2 cells; BAR502 10-20 μM + LIF 10 ng/mL): significantly reversed
- effect on LIF-induced increase of Ki-67 positive cells (MIA PaCa-2 cells; LIF 10 ng/mL + BAR502): reversed
